Source: patent publication US20050031598A1, “Engineering three-dimensional tissue structures using differentiating embryonic stem cells” (priority 2002, published 2005)

Tests used:
Format in all cases: cell-based, human
[1] = system: differentiating hES cells (EB day 8); test: Histochemical and immunohistochemical staining of hES cell constructs on PLLA/PLGA scaffolds; settings: scaffold constructs, two weeks; for alpha feto protein (AFP) and albumin staining: in comparison to the control
Procedure: (§1) For seeding in matrigel, 8-9 days-old EBs were trypsinized, and 0.8×10^6 cells were mixed in 25 μL of a 50% (vol/vol) media and matrigel (growth factor-reduced, BD Biosciences, Bedford, Mass.). EB media was supplemented with the following growth factors: TGF-β1 (2 ng/mL), activin-A (20 ng/mL), and IGF-I (10 ng/mL), (R&D Systems, Minneapolis, Minn.), and RA (300 ng/ml) (Sigma). The mixture was solidified in a 6-well Petri dish at 37° C. and then detached from the dish with sterile blades. 4 mL of each respective EB media was added. For seeding on scaffolds, 0.8×10^6 cells were seeded into each scaffold using 25 μL of a mixture containing 50% (vol/vol) of Growth Factor-Reduced Matrigel and the respective EB media. After seeding the cells, scaffolds were suspended in 6-well petri dishes in their respective media. For some experiments, scaffolds were soaked in 50 μg/mL of fibronectin (Sigma) for 1 hour and washed in PBS prior to direct cell seeding (without matrigel) in 25 μL of EB media.
(§2) Tissue constructs were fixed for 6 hours in 10% neutral buffered formalin, routinely processed, and embedded in paraffin. 5-μm thick transverse sections were placed on silanized slides for immunohistochemistry or staining with hematoxylin and eosin (H & E), trichrome, or Safranin O. Immunohistochemical staining was carried out using the Biocare Medical Universal HRP-DAB kit (Biocare Medical, Walnut Creek, Calif.) according to the manufacturer's instructions, with prior heat-treatment at 90° C. for 20 minutes in ReVeal buffer (Biocare Medical) for epitope recovery. The primary antibodies were mouse anti-human: desmin (1:150), alpha feto protein (1:2500), cytokeratin 7 (1:25), CD31 (1:20), albumin (1:100), vimentin (1:50), S100 (1:100) (all from Dako), anti-human βIII-tubulin (Sigma, 1:500), nestin (Transduction Laboratories, San Diego, Calif., 1:1000), CD34 (Labvision, Fremont, Calif., 1:20), SSEA4 (Hybridoma Bank, University of Iowa, Ames, 1:4), and Tra 1-60 (a gift from Peter Andrews, University of Sheffield, Sheffield, U.K., 1:10). Human and mouse tissues (Daks) were used as controls to ensure antibody specificity (FIG. 1). For proliferation studies, culture medium was incubated with […] of 5′-bromo-2′-deoxyuridine (BrdUrd) (Sigma) for 3 hours before fixation. Tissue sections were stained using mouse anti-BrdUrd antibodies (1:1000).

[2] = system: differentiating hES cells (EB day 8); test: Lumen diameters of tubulocystic structures lined by cytokeratin-positive epithelium in hES cell-scaffold constructs; settings: scaffold constructs grown two weeks, IGF-I 10 ng/mL, mean ±SD; for percentage of lumens >40 μm of total number of lumens (tubulocystic structures): RA 300 ng/ml, control 65%±4
Procedure: as §1
(§3) Tissue constructs were fixed for 6 hours in 10% neutral buffered formalin, routinely processed, and embedded in paraffin. 5-μm thick transverse sections were placed on silanized slides for immunohistochemistry or staining with hematoxylin and eosin (H & E), trichrome, or Safranin O. Immunohistochemical staining was carried out using the Biocare Medical Universal HRP-DAB kit (Biocare Medical, Walnut Creek, Calif.) according to the manufacturer's instructions, with prior heat-treatment at 90° C. for 20 minutes in ReVeal buffer (Biocare Medical) for epitope recovery. […]
Constructs grown for two weeks in control medium or in the presence of IGF or RA were processed and stained with anti-cytokeratin antibody as described above. Tubulocystic structures were counted and lumen diameters measured and grouped (large>200 μm, medium (Med)>40 μm, small<[…], closed and multilayered lumens). The results, the mean values (±SD) of samples obtained in two different experiments performed in duplicate, were recorded as percentages of lumens in each group from total number of lumens in each sample.

[3] = system: differentiating hES cells (EBs day 8); test: Differentiation of hES cells in matrigel alone; settings: for shape of cell-matrigel structure: two weeks in suspension
Procedure: as §1, §2

[4] = system: hEBs (day 8); test: Staining of hEBs incubated with growth factors; settings: EBs conditioned with growth factor
Procedure: FIG. 4 includes light micrographs of 5-μm-thick sections taken from hEBs (day 8), incubated for additional 2 weeks with control medium (CON) or medium supplemented with retinoic acid (RA), or insulin-like growth factor (IGF), and stained with antibodies against human cytokeratin, α-feto-protein, and nestin (scale bars=200 μm.)
hES cells (H9 clone) were grown on mouse embryonic fibroblasts (Cell Essential, Boston, Mass.) in KnockOut Medium (Gibco-BRL, Gaithersburg, Md.), a modified version of Dulbeco's modified Eagle's medium optimized for ES cells, as described^5. To induce formation of EBs, hES cell colonies were dissociated with 1 mg/ml collagenase type IV and suspended in differentiation media without LIF and bFGF in Petri dishes^5.
as §3

[5] = system: differentiating hES cells (EB day 8); test: RT-PCR gene expression analysis of hES cell constructs on PLLA/PLGA scaffolds; settings: scaffold constructs, two weeks
Procedure: as §1
Total RNA was isolated by an RNEasy Mini Kit (Qiagen, Chatsworth, Calif.). […] For some gels including RNA amplified using a GADPH primer, semi-quantitative analysis was performed by measuring the mean pixel intensities of each band and normalizing the measured intensity to the mean pixel intensity of the GADPH band.

| Molecule | increase in total percentage of cytokeratin-positive areas within the tissue ([1]; versus control medium, P<0.01) [fold] | percentage of lumens >40 μm of total number of lumens (tubulocystic structures) [2] | Safranin-O staining for glycosaminoglycans (cartilage extracellular matrix) [1] | alpha feto protein (AFP) and albumin staining [1] | percentage of lumens >200 μm of total number of lumens (tubulocystic structures) [2] | AFP expression/staining ([3]; two weeks) | epithelial-lined tubular or cystic structures (histology) ([3]; two weeks) | shape of cell-matrigel structure [3] | safranin-O staining [4] | collagen formation (trichrome staining) [1] | cartilage matrix protein (CMP) expression ([5]; compared to the other samples) | Safranin-O staining of cartilage-derived GAG ([3]; two weeks) | expression of pancreatic gene PDX-1 ([5]; versus other growth factors) | cellular viability ([3]; two weeks) |
| --- | --- | --- | --- | --- | --- | --- | --- | --- | --- | --- | --- | --- | --- | --- |
| CC1=C(/C=C/C(C)=C/C=C/C(C)=C/C(=O)O)C(C)(C)CCC1 [RA, retinoic acid, reference compound] | ~4 | 25%±12 |  |  |  |  |  |  |  |  |  |  |  |  |
| IGF: insulin growth factor IGF-I, 10 ng/mL (R&D Systems) |  | 84%±6 | did not induce formation of Safranin O-positive matrix | high levels of AFP and albumin in more defined areas | 10%±3 | some AFP staining could be observed | occasional epithelial-lined tubular or cystic structures | larger and less condensed |  |  |  |  |  |  |
| TGF-β: transforming growth factor beta, TGF-β1, 2 ng/mL (R&D Systems) |  |  | high levels of Safranin-O staining |  |  |  | did not contain any such structures |  | no safranin-O staining was observed | induced mature collagen formation | higher levels | No Safanin-O staining |  |  |
| activin-A |  |  | did not induce formation of Safranin O-positive matrix | high levels of alpha feto protein (AFP) and albumin throughout the sample |  | No AFP expression was observed | did not contain any such structures | small, condensed spheres |  |  |  |  | higher levels | least cellular viability |
